Assay results taken from patent US6844356B2, “Hemorrhoid therapeutic treatment” (priority 2003, dated 2005).

Columns and labels:
[1] = cited from earlier work
[2] = system: hemorrhoid; assay: injection of the solution into the hemorrhoid of patients; assay type: in vivo; details: injected into the hemorrhoid as water solution
Experimental: A chemical treatment for the permanent relief of hemorrhoids is provided by the chemical composition of this invention. The composition comprises a mixture of Yong Noe, a Chinese herb known to Western man as camphor, quinine, and distilled water. These two ingredients are ground into powder and dissolved in distilled water. The composition is then injected by a medical practitioner into the affected area at least once, and perhaps several times, over a two week period. After a period of time, the hemorrhoidal tissue will turn dark, harden, and flake off leaving the skin clear at the site of the former hemorrhoid. A mixture of Yong Noe and quinine in a […] in an amount of 37.5 grams are divided into 7 equal weight portions. Each portion of the mixture is dissolved in 4 grams of water by placing the composition in a container in boiling water for 3-5 minutes. The composition is a clear whitish solution. This solution is used at room temperature as the medicament for the treatment of hemorrhoids as will be discussed infra. […] The composition of 37.5 grams of solids is comprised of 25 grams of quinine and 12.5 grams of camphor. This mixture is equally divided and filled into seven different 10 cc vials, and 4 cc distilled water is added to each vial. […]

Structure (SMILES) | solubility [1] | result of injection into the hemorrhoid [2]
CC12CCC(CC1=O)C2(C)C (centres unmarked) [Camphor] | only slightly soluble in water | –
C=C[C@H]1C[N@@]2CC[C@H]1C[C@H]2[C@H](O)c1ccnc2ccc(OC)cc12 [quinine alone, quinine] | – | not effectual
